Assay results as given in the Kinase Knowledgebase extract (Sharma et al. 2016).

The compounds below were run against PIK3CA (human) (UniProt P42336) (assay: Inhibition of PIK3CA Kinase Activity).
PIK3CA (human), sequence (P42336 whole entry, looked up): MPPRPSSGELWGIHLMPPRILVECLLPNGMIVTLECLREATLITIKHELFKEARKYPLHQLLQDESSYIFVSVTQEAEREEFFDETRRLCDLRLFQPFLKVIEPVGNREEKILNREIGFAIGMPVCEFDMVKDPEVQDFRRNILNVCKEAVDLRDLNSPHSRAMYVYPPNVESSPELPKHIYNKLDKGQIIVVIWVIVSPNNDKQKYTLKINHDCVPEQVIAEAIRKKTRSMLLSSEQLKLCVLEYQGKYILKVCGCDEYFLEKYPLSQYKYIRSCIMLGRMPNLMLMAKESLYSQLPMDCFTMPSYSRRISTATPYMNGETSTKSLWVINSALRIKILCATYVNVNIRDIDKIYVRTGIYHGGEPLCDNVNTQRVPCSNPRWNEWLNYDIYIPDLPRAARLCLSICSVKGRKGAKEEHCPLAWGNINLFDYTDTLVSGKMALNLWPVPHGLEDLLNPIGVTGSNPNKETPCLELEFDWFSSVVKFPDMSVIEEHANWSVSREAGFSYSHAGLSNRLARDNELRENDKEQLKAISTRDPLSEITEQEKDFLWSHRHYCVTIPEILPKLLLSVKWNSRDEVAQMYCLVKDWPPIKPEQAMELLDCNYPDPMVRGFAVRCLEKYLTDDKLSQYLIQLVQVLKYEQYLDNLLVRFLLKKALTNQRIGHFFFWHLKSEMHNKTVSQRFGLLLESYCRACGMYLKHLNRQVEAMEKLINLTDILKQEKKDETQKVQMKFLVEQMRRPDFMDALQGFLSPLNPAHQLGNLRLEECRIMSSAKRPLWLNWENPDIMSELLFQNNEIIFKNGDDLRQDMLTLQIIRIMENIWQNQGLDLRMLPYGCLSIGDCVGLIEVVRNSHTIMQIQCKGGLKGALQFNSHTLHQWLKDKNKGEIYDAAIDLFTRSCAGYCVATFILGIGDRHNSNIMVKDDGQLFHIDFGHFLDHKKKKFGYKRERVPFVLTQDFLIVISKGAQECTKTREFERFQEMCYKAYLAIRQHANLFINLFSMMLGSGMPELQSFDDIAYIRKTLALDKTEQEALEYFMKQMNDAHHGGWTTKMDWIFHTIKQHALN

| SMILES | IC50 |
| --- | --- |
| Oc1cccc(-c2nc(N3CCOCC3)nc3c2ncn3C2CCCCO2)c1 (centres undefined) | < 1000 nM |
| Nc1ncc(-c2nc(N3CCOCC3)nc3[nH]cnc23)cn1 | < 1000 nM |
| CCC(C)n1cnc2c(-c3cnc(N)nc3C)nc(N3CCOCC3)nc21 (centres undefined) | < 1000 nM |
| Nc1ncc(-c2nc(N3CCOCC3)nc3c2ncn3Cc2c(F)cccc2F)cn1 | < 1000 nM |
| Cc1nc(N)ncc1-c1nc(N2CCOCC2)nc2c1ncn2C(C)c1ccccc1 (centres undefined) | < 1000 nM |
| CCC(C)n1cnc2c(-c3cccc4[nH]ccc34)nc(N3CCOCC3)nc21 (centres undefined) | < 1000 nM |
| Nc1ncc(-c2nc(N3CCOCC3)nc3c2ncn3C2CCc3ccccc3C2)cn1 (centres undefined) | < 1000 nM |
| CC(C)NC(=O)Cn1cnc2c(-c3cccc(O)c3)nc(N3CCOCC3)nc21 | < 1000 nM |
| O=C(Cn1cnc2c(-c3cccc(O)c3)nc(N3CCOCC3)nc21)Nc1ccccc1 | < 1000 nM |
| COCC(C)n1cnc2c(-c3ccc(N)nc3)nc(N3CCOCC3)nc21 (centres undefined) | < 1000 nM |
| CCC(C)n1cnc2c(-c3cnc(N)nc3)nc(N3CCOC[C@@H]3C)nc21 (some centres undefined) | < 1000 nM |
| O=[N+]([O-])c1cccc(Cn2cnc3c(-c4cccc(O)c4)nc(N4CCOCC4)nc32)c1 | < 1000 nM |
| CCC(C)n1cnc2c(-c3cnc(N)nc3OC)nc(N3CCOCC3)nc21 (centres undefined) | < 1000 nM |
| CCC(C)n1cnc2c(-c3cnc(NC)nc3)nc(N3CCOCC3)nc21 (centres undefined) | < 1000 nM |
| CC1CCC(n2cnc3c(-c4cnc(N)nc4)nc(N4CCOCC4)nc32)C1 (centres undefined) | < 1000 nM |
| O=C(Cn1cnc2c(-c3cccc(O)c3)nc(N3CCOCC3)nc21)N1CCOCC1 | < 1000 nM |
| CC(C)C(C)n1cnc2c(-c3cccc4[nH]ccc34)nc(N3CCOCC3)nc21 (centres undefined) | < 1000 nM |
| Cc1nc(N)ncc1-c1nc(N2CCOCC2)nc2c1ncn2C(C)C1CC1 (centres undefined) | < 1000 nM |
| CC(C1CC1)n1cnc2c(-c3cnc(N)nc3)nc(N3CCOCC3)nc21 (centres undefined) | < 1000 nM |
| Oc1cccc(-c2nc(N3CCOCC3)nc3c2ncn3Cc2cc(F)cc(F)c2)c1 | < 1000 nM |
| Nc1ncc(-c2nc(N3CCOCC3)nc3c2ncn3CC2CC2)cn1 | < 1000 nM |
| Oc1cccc(-c2nc(N3CCOCC3)nc3c2ncn3C2CCCC2)c1 | < 1000 nM |
| CC(C)C(C)n1cnc2c(-c3cnc(N)nc3)nc(N3CCOCC3)nc21 (centres undefined) | < 1000 nM |
| Nc1ncc(-c2nc(N3CCOCC3)nc3c2ncn3C2Cc3ccccc3C2)cn1 | < 1000 nM |
| COCC(C)n1cnc2c(-c3cnc(N)nc3C)nc(N3CCOCC3)nc21 (centres undefined) | < 1000 nM |
| CCC(C)n1cnc2c(-c3cccc(O)c3)nc(N3CCOCC3)nc21 (centres undefined) | < 1000 nM |
| CC(C)n1cnc2c(-c3cccc4[nH]ccc34)nc(N3CCOCC3)nc21 | < 1000 nM |
| Cc1cccc(-n2cnc3c(-c4cnc(N)nc4)nc(N4CCOCC4)nc32)c1 | < 1000 nM |
| CCC(C)n1c(Br)nc2c(-c3cccc(O)c3)nc(N3CCOCC3)nc21 (centres undefined) | < 1000 nM |
